According to patent US5607850A, “Enzyme from microbial source: phthalyl amidase” (Eli Lilly and Company, priority 1995, dated 1997):
“Also recorded” adds a separate entry of the source. Where two headings read alike, the source gives them in different places.

What was measured:
phthalyl amidase [1] = target: T1, phthalyl amidase (Xanthobacter agilis, UniProt P0C2Y0); assay: Substrate specificity of phthalyl amidase (Tables 9-11); format: biochemical; details: for Relative Activity: 30° C., pH 8.0
T1 sequence (P0C2Y0 2-453): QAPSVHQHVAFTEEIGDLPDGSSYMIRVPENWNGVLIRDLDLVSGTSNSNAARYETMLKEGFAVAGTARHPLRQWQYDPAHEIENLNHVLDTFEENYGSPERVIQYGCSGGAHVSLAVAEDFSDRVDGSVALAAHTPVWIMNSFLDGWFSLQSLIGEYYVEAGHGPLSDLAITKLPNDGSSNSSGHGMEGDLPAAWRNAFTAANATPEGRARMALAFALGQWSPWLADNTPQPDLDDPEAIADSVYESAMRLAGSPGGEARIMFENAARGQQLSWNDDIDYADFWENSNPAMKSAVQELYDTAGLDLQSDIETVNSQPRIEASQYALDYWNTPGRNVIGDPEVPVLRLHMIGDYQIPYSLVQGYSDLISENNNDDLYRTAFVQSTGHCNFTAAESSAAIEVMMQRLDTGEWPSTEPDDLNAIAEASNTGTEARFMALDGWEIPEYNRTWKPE
Experimental: the activity of phthalyl amidase against 25 compounds was determined. The compounds were divided into beta-lactams (Table 9), phthalyl amides (Table 10), and aromatic ring substituted amides (Table 11). Each reaction mixture (1 ml total volume) contained 2.5 μmol of compound and 0.3 units of enzyme (based on the chromogenic substrate) of the preparative scale purified enzyme, in 50 mM phosphate buffer, pH 8.0. The reactions were conducted at 30° C. Samples of the reaction mixture were taken at various times, and methanol (equal value) was added to stop the reaction. The samples were examined by HPLC to determine the extent of substrate hydrolysis. The amount of compound hydrolyzed was calculated from a standard curve of the test compound. All substrates were stable in buffer at 30° C. and pH 8.0 in the absence of enzyme for 24 hours.

Xanthobacter agilis = assay: Induction of phthalyl amidase in cultures of Xanthobacter agilis (Table 1); format: cell-based; details: for effect on wet weight cell mass: 48 hours growth
Experimental: Three compounds at different concentrations were added to aerated cultures of the organism growing at 30° C. in Bac MI medium. The compounds tested were phthalate (PAA), phthalyl glycine (PAG), and PMBL. Cells of Xanthobacter agilis were grown with aeration for 24 hours. This vegetative culture was used to inoculate Bac MI medium (50 ml) containing different concentrations of the compounds to be tested. After 48 hours growth under standard conditions, cells were harvested by centrifugation and wet weight of the cells was determined. Crude cell extracts were prepared by lysozyme treatment of the cells as in Example 1. Suspensions were briefly sonicated to break up the viscous suspension. A cell-free supernatant was obtained by centrifugation of the suspension at 14,000 rpm for 15 minutes.
Enzyme activity in cell-free lysates was determined by monitoring conversion of the chromogenic substrate 4-(2'-carboxy-N-benzoyl)amino-2-carboxy-nitrobenzene (II) to 2-nitro-5-amino benzoic acid and phthalic acid, a reaction catalyzed by phthalyl amidase as shown below: [drawing 4]
The assay reaction mixture (1 ml) consisted of 0.3 μmol of the chromogenic substrate (II) and 0.001-0.5 μg of enzyme preparation in 50 mM potassium phosphate buffer, pH 8.0 (buffer A). The enzymatic reaction was conducted at 30° C. for 10 minutes and the appearance of product was monitored at 380 nm (or 430 nm). The amount of substrate hydrolyzed was calculated from a standard curve of the amine product.

phthalyl amidase [2] = target: T1, phthalyl amidase; assay: Kinetic parameters for phthalyl amidase; format: biochemical; details: Table 12; 32° C., pH 8.2
Experimental: The kinetic parameters of the enzyme were determined for several representative substrates. Compounds II, XVII, and XVIII were tested using 0.9 μg/ml of enzyme. Compounds III and XI were tested using 5.14 μg/ml of enzyme. Substrate concentrations were between 0 and 25 mM and reaction time was between 2 and 20 minutes, depending on the substrate used. All reactions were run at 32° C. and at pH 8.2. Km is the Michaelis constant for enzyme kinetics, Vmax is the maximal rate of reaction calculated by the Michaelis-Menten equation, and Kcat is the catalytic constant for an enzyme reaction.

phthalyl amidase [3] = target: T1, phthalyl amidase; assay: Influence of effectors and organic solvents on phthalyl amidase activity; format: biochemical; details: for % of Control Activity: 1 mM agent
Experimental: A typical reaction mixture consisted of 1 ml total volume and contained 0.1 mM III, 0.1 μM phthalyl amidase in 50 mM potassium phosphate buffer (pH 5.5-9.0) at 32° C. for 20 minutes. The reactions were stopped by the addition of 1 ml methanol. After removal of precipitate by centrifugation, an aliquot of the supernatant fraction (typically 30 μl) was monitored for the beta-lactam nucleus and phthalic acid by HPLC using a Zorbax C8 column (0.46×15 cm; MacMod Analytical Inc., Chadds Ford, Pa.). The two reaction products were eluted by a mobile phase constructed as continuous mixed gradients from (a) 1% ACN (acetonitrile)/0.2% TFA (trifluoroacetic acid) and (b) 80% ACN/0.2% TFA as follows: 1) 0% (b), 3min; 2) 0-50% (b), 0.5 min; 3) 50-100% (b), 3 min; 4) 100% (b), 2.5 min; 5) 100-1% (b), 0.1 min; and 6) 0% (b), 5 min.
The effect of various agents on the enzymatic activity of phthalyl amidase was determined using standard conditions (see Example 5). All agents were tested at 1 mM final concentration unless otherwise indicated.

[4] = Table 11, aromatic ring substituted amides

## CC(C)NC(=O)c1ccccc1C(=O)O [XII]
Phthalyl amidase [1]; Table 10, phthalyl amides
  Relative Activity: 9.7

## O=C(O)c1ccccc1C(=O)O [PAA, phthalate]
Xanthobacter agilis; addition 1 mg/ml
  Cell weight: 0.35 g/50 ml
  Total units/mg protein: 1.4 µmol/min/mg
  Units/g/cells: 3.9 Units/g/cells
Xanthobacter agilis; addition 2 mg/ml
  Cell weight: 0.47 g/50 ml
  Total units/mg protein: 4.3 µmol/min/mg
  Units/g/cells: 9.3 Units/g/cells
Xanthobacter agilis; addition 5 mg/ml
  Cell weight: 0.7 g/50 ml
  Total units/mg protein: 3.7 µmol/min/mg
  Units/g/cells: 5.5 Units/g/cells
Xanthobacter agilis; addition 10 mg/ml
  Cell weight: 0.6 g/50 ml
  Total units/mg protein: 12.0 µmol/min/mg
  Units/g/cells: 19.8 Units/g/cells

## CCCCCCC(C(=O)O)n1cnc(NC(=O)c2c(F)cccc2C(=O)O)c1 (stereo not drawn) [XVIII]
Phthalyl amidase [1]; [4]
  Relative Activity: 159.00
Phthalyl amidase [2]
  Km: 170 µM
  Vmax: 1.94 μmol/sec/μmol

## COC(=O)[C@H](Cc1ccccc1)NC(=O)[C@H](CC(=O)O)NC(=O)c1ccccc1C(=O)O [XIV]
Phthalyl amidase [1]; Table 10, phthalyl amides
  Relative Activity: 118.5

## [Cl-].[Cl-].[Co+2] [CoCl2]
Phthalyl amidase [3]
  % of Control Activity: 101%

## [Cl][Ni][Cl] [NiCl2]
Phthalyl amidase [3]
  % of Control Activity: 94%

## CCCCCCC(C(=O)O)n1cnc(NC(=O)c2ccccc2O)c1 (stereo not drawn) [XXV]
Phthalyl amidase [1]; [4]
  Relative Activity: 0

## O=C(O)CN1C(=O)C(NC(=O)c2ccccc2)C1CCc1ccco1 (stereo not drawn) [VI]
Phthalyl amidase [1]; Table 9, beta-lactams
  Relative Activity: 0

## CCCCCCC(C(=O)O)n1cnc(NC(=O)c2ccc(C(=O)O)cc2)c1 (stereo not drawn) [XXIII]
Phthalyl amidase [1]
  acceptance as substrate of the enzyme: completely eliminates hydrolytic activity
Phthalyl amidase [1]; [4]
  Relative Activity: 0

## CCCCCCC(C(=O)O)n1cnc(NC(=O)c2ccccc2C(=O)O)c1 (stereo not drawn) [XVII]
Phthalyl amidase [1]; [4]
  Relative Activity: 100.0
Phthalyl amidase [2]
  Km: 90 µM
  Vmax: 1.41 μmol/sec/μmol

## O=C(O)c1ccccc1C(=O)NCc1ccccc1
Phthalyl amidase [1]; Table 10, phthalyl amides
  Relative Activity: 40.2

## CCCCCCC(C(=O)O)n1cnc(NC(=O)c2cccc(C(=O)O)c2)c1 (stereo not drawn) [XXIV]
Phthalyl amidase [1]
  acceptance as substrate of the enzyme: completely eliminates hydrolytic activity
Phthalyl amidase [1]; [4]
  Relative Activity: 0

## CCCCCCC(C(=O)O)n1cnc(NC(=O)c2ccccc2C(=O)O)c1 (stereo not drawn) [XIII]
Phthalyl amidase [1]
  acceptance as substrate of the enzyme: most active compound found
Phthalyl amidase [1]; Table 10, phthalyl amides
  Relative Activity: 1027.2

## Nc1ncnc2c1ncn2[C@@H]1O[C@H](COP(=O)(O)OP(=O)(O)OP(=O)(O)O)[C@@H](O)[C@H]1O [ATP, adenosine 5triphosphate]
Phthalyl amidase [3]; 1 mM, iodoacetic acid 10 mM
  effect on enzyme activity: No organic co-factors, such as ATP, NADPH or others, stimulated enzyme activity

## CCCCCCC(C(=O)O)n1cnc(NC(=O)c2ncccc2C(=O)O)c1 (stereo not drawn) [Compound XX]
Phthalyl amidase [1]
  acceptance as substrate of the enzyme: acceptable
Phthalyl amidase [1]; [4]
  Relative Activity: 85.9

## [Cl][Fe]([Cl])[Cl] [FeCl3]
Phthalyl amidase [3]
  % of Control Activity: 96%

## CCCCCCC(C(=O)O)n1cnc(NC(=O)c2cccc(O)c2C(=O)O)c1 (stereo not drawn) [XXI]
Phthalyl amidase [1]
  acceptance as substrate of the enzyme: acceptable
Phthalyl amidase [1]; [4]
  Relative Activity: 1.3

## O=C(O)c1ccccc1C(=O)Nc1ccc([N+](=O)[O-])c(C(=O)O)c1 [II, 4-(2'-carboxy-N-benzoyl)amino-2-carboxy-nitrobenzene]
Phthalyl amidase [1]; Table 10, phthalyl amides
  Relative Activity: 295.7
Phthalyl amidase [2]
  Km: 50 µM
  Vmax: 5.95 μmol/sec/μmol

## [Ca+2].[Cl-].[Cl-] [CaCl2]
Phthalyl amidase [3]
  % of Control Activity: 89%

## CCCCCCC(C(=O)O)n1cnc(NC(=O)c2cccc(O)c2)c1 (stereo not drawn) [XXVI]
Phthalyl amidase [1]; [4]
  Relative Activity: 0

## OCC(O)CO [Glycerol]
Phthalyl amidase [3]; 10% solvent
  effect of solvent on enzyme activity: least amount of inhibition of the enzyme

## [Cl][Mn][Cl] [MnCl2]
Phthalyl amidase [3]
  % of Control Activity: 84%

## CSCCC(NC(=O)c1ccccc1C(=O)O)C(=O)O (racemic) [XV]
Phthalyl amidase [1]; Table 10, phthalyl amides
  Relative Activity: 220.1

## O=C(O)CN1C(=O)C(NC(=O)COc2ccccc2)C1CCc1ccco1 (stereo not drawn) [IV]
Phthalyl amidase [1]; Table 9, beta-lactams
  Relative Activity: 0

## O=C(O)CNC(=O)c1ccccc1C(=O)O [PAG, phthalyl glycine]
Xanthobacter agilis
  effect on wet weight cell mass: increased the wet weight cell mass
Xanthobacter agilis; addition 1 mg/ml
  Cell weight: 0.33 g/50 ml
  Total units/mg protein: 0.35 µmol/min/mg
  Units/g/cells: 1.04 Units/g/cells
Xanthobacter agilis; addition 5 mg/ml
  Cell weight: 0.5 g/50 ml
  Total units/mg protein: 4.4 µmol/min/mg
  Units/g/cells: 9.4 Units/g/cells

## CCCCCCC(C(=O)O)n1cnc(NC(=O)c2ccccc2-c2nn[nH]n2)c1 (stereo not drawn) [XXII]
Phthalyl amidase [1]
  acceptance as substrate of the enzyme: Low levels of hydrolysis
Phthalyl amidase [1]; [4]
  Relative Activity: 0.2

## [Cl-].[Cl-].[Mg+2] [MgCl2]
Phthalyl amidase [3]
  % of Control Activity: 102%

## CCCCCCC(C(=O)O)n1cnc(NC(=O)c2cc(O)cc(O)c2)c1 (stereo not drawn) [XXVII]
Phthalyl amidase [1]; [4]
  Relative Activity: 0

## [Cl][Fe][Cl] [FeCl2]
Phthalyl amidase [3]
  % of Control Activity: 102%

## O=C(O)CI [Iodoacetate]
Phthalyl amidase [3]
  effect on enzyme activity: exert inhibitory activity; also recorded: significantly reduced phthalyl amidase activity; also recorded: significantly inhibited the enzyme

## CCCCCCC(C(=O)O)n1cnc(NC(=O)c2ccccc2)c1 (stereo not drawn) [XXVIII]
Phthalyl amidase [1]; [4]
  Relative Activity: 0

## O=C(O)CN1C(=O)C(NC(=O)c2ccccc2C(=O)O)C1CCc1ccco1 (stereo not drawn) [PMBL, phthalyl monocyclic beta-lactam]
Xanthobacter agilis
  effect on wet weight cell mass: had no effect
Xanthobacter agilis; addition 1 mg/ml
  Cell weight: 0.35 g/50 ml
  Total units/mg protein: 0.28 µmol/min/mg
  Units/g/cells: 0.79 Units/g/cells
Xanthobacter agilis; addition 5 mg/ml
  Cell weight: 0.24 g/50 ml
  Total units/mg protein: 2.0 µmol/min/mg
  Units/g/cells: 8.1 Units/g/cells

## O=C(O)c1ccccc1C(=O)Nc1ccc([N+](=O)[O-])cc1 [VIII]
Phthalyl amidase [1]; Table 10, phthalyl amides
  Relative Activity: 544.6

## O=C(O)CN(CCN(CC(=O)O)CC(=O)O)CC(=O)O [EDTA]
Phthalyl amidase [3]
  effect on enzyme activity: little or no effect on enzyme activity

## O=C(O)C1=C(Cl)CCC2C(NC(=O)c3ccccc3C(=O)O)C(=O)N12 (stereo not drawn) [VII]
Phthalyl amidase [1]; Table 10, phthalyl amides
  Relative Activity: 100.0

## CC(C)CC(NC(=O)c1ccccc1C(=O)O)C(=O)O (racemic) [XVI]
Phthalyl amidase [1]; Table 10, phthalyl amides
  Relative Activity: 90.2

## O=C(O)CN1C(=O)C(NC(=O)Cc2ccccc2)C1CCc1ccco1 (stereo not drawn) [V]
Phthalyl amidase [1]; Table 9, beta-lactams
  Relative Activity: 0

## c1cnc2c(c1)ccc1cccnc12 [Phenanthroiine, phenanthroline]
Phthalyl amidase [3]; 1 mM, iodoacetic acid 10 mM
  effect on enzyme activity: little or no effect on enzyme activity

## O=C(O)c1cc[c]([Hg][OH])cc1 [p-HMB, parahydroxy mercuric benzoate]
Phthalyl amidase [3]
  % of Control Activity: 65%
Phthalyl amidase [3]; 1 mM, iodoacetic acid 10 mM
  effect on enzyme activity: exert inhibitory activity; also recorded: significantly reduced phthalyl amidase activity; also recorded: significantly inhibited the enzyme

## O=C(O)CNC(=O)c1ccccc1C(=O)O [XI]
Phthalyl amidase [1]; Table 10, phthalyl amides
  Relative Activity: 31.8
Phthalyl amidase [2]
  Km: 140 µM
  Vmax: 0.27 μmol/sec/μmol

## [Cl][Cu][Cl] [CuCl2]
Phthalyl amidase [3]
  % of Control Activity: 36%
Phthalyl amidase [3]; 1 mM, iodoacetic acid 10 mM, listed as Cu^++
  effect on enzyme activity: exert inhibitory activity; also recorded: significantly inhibited the enzyme
Phthalyl amidase [3]; 1 mM, iodoacetic acid 10 mM, listed as copper ions
  effect on enzyme activity: significantly reduced phthalyl amidase activity

## NC(=O)C1=CN([C@@H]2O[C@H](COP(=O)(O)OP(=O)(O)OC[C@H]3O[C@@H](n4cnc5c(N)ncnc54)[C@H](OP(=O)(O)O)[C@@H]3O)[C@@H](O)[C@H]2O)C=CC1 [NADPH, reduced form of NADP]
Phthalyl amidase [3]; 1 mM, iodoacetic acid 10 mM
  effect on enzyme activity: No organic co-factors, such as ATP, NADPH or others, stimulated enzyme activity

## O=C(O)CN1C(=O)C(NC(=O)c2ccccc2C(=O)O)C1CCc1ccco1 (stereo not drawn) [drawing 6]
Phthalyl amidase [1]; Table 9, beta-lactams
  Relative Activity: 47.9

## [Cl-].[Cl-].[Zn+2] [ZnCl2]
Phthalyl amidase [3]
  % of Control Activity: 100%
